Results taken from patent publication US20060025483A1, “(-)-Hydroxycitric acid for protection against soft tissue and arterial calcification” (priority 2004, published 2006).

Key:
systolic blood pressure [1] = experiment: systolic blood pressure (SBP) by tail plethysmography, rats on 30% fat / sucrose diet; format: in vivo, Sprague-Dawley Rats; conditions: for lowering of SBP: end of 8 weeks
Excerpt: (§1) A known effect of ACE inhibitors is a reduction in elevated systolic blood pressure. To test this, the following protocol was employed: Sprague-Dawley Rats (SD), approximately 8 weeks of age were obtained. Six groups of eight male SD received the same standard rat chow manufactured to specifications. The special diets derived 30% of calories from fats (one half from lard and one half from corn oil), 50% from carbohydrates, and 20% from proteins. Twenty percent of dietary calories was derived from sucrose and the preponderance of the remaining carbohydrate calories was derived from dextrin. During weekdays (M-F), each group was gavaged twice daily with a solution containing a commercial source of potassium hydroxycitrate (KHCA), a commercial source of potassium-calcium hydroxycitrate (KCaHCA), or a pre-commercial non-salt source of potassium-magnesium hydroxycitrate (KMgHCA, listed as KMgHCA L-Low, M-Intermediate or H-High depending upon the dose). Over the weekends (S-S), a similar quantity of the weekday daily dose was added to twenty grams of food, that is, an amount of food estimated to be close to the daily intake of the animals. At initiation of study and four weeks, and eight weeks later, bloods were drawn from all SD for routine blood chemistries. Body weight (BW) was measured weekly and systolic blood pressure (SBP) was measured every two weeks.
The HCA dosages in the arms varied. The dosage used in the KHCA arm was extrapolated from the recommended 1,500 mg HCA per day for humans consuming a normal diet (i.e., ≧30% calories derived from fats) advocated by a commercial seller of KHCA and claimed to have produced acceptable clinical results. The approximate equivalent for the rat model is 35.4 mg HCA per day, which we increased to 38.4 mg HCA per day for convenience in employing a 48% HCA potassium salt and to remain safely on the high side in practice. For the sake of comparison, a commercial KCaHCA salt (60% HCA) was chosen and delivered at an HCA dosage level of 48 mg per day, which slightly exceeded the lowest dosage of HCA found to be efficacious for inhibition of weight gain in rats in the early pharmaceutical trials (45.4 mg/day) using pure trisodium hydroxycitrate and a very low fat diet. The design thus utilized a realistic diet with rough equivalents of the HCA dosages claimed to be effective in both the human and rat models.
The experimental KMgHCA dosings varied considerably from that of the other two salts. […] As a result, the recalculated HCA doses for the experimental compound were a low dose (KMgHCA L) of 14 mg, an intermediate dose (KMgHCA M) of 28 mg and a high dose (KMgHCA H) of 84 mg per day. The difficulty in calculating the HCA content in this case is not unique inasmuch as there is as of yet no universally accepted method for calculating the HCA content of the various salts. Again, preparations yielded the equivalent of 48 mg HCA per day from KCaHCA and 38.4 mg HCA per day from KHCA.
(§2) Systolic Blood Pressure (SBP): SBP was estimated by tail plethysmography in unanesthetized rats after a brief warming period. Readings were taken approximately one minute apart. To be accepted, SBP measurements had to be virtually stable for a minimum of three consecutive readings.
(§3) Statistical Analyses: Results are presented as mean±SEM. Many statistics were performed by one-way analysis of variance (ANOVA). SBP and BW were examined by two-way analyses of variance (one factor being dietary group and the second factor being time of examination). Where a significant effect of diet was detected by ANOVA (p<0.05), the Dunnett t test was used to establish which differences between means reached statistical significance (p<0.05). If a Student's t test was employed, this is noted.

insulin = experiment: circulating insulin concentrations; format: in vivo, Sprague-Dawley Rats; conditions: for average insulin concentrations vs control: not significant using ANOVA
Excerpt: as §1, §3

systolic blood pressure [2] = experiment: SBP in SHR on rat chow / table sugar diet; format: in vivo, Spontaneously hypertensive rats (SHR); conditions: 100 mg HCA per day in food; over three weeks
Method: as §2
(§4) Spontaneously hypertensive rats (SHR) were placed on a diet composed of regular rat chow (60% w/w) and table sugar (40% w/w). This diet reliably elevates blood pressure in this animal model. One group received 100 mg HCA per day in the form of a new potassium-magnesium hydroxycitrate (different from that used in Example 1) via an added 5 g HCA per kg of food mix. Systolic blood pressure and body weight were tested as in Example 1 on a weekly basis.

[3] = body weight in SHR on rat chow / table sugar diet; format: in vivo, Spontaneously hypertensive rats (SHR); conditions: 100 mg HCA per day in food; over three weeks
Method: as §4

[4] = glucose tolerance test with 0.1 unit regular insulin injected along with glucose; format: in vivo, Spontaneously hypertensive rats (SHR); conditions: at 7.5 minutes; 100 mg HCA per day in food
Method: This was viewed as likely positive in that rats gain weight steadily as long as they remain in good health and the SHR at middle age, as used here, lives a relatively short life and its health deteriorates as its blood pressure rises. […] A glucose tolerance test was administered in which 0.1 unit of regular insulin was injected along with glucose. […] This finding indicates increased insulin sensitivity. (FIG. 6)

C-reactive protein = experiment: serum C-reactive protein, rats on 30% fat / simple sugar diet; format: in vivo; design: key to CRP Modulation: ** = significant; conditions: for Δ OD units after 4 wks: serum CRP, 1 unit equals 50 picograms/mL
Excerpt: (§5) To test the properties of HCA in various forms under conditions similar to those found in human clinical trials, the inventor arranged for rats to be fed a diet in which 30% of the calories were obtained from fat under standard conditions, with a further approximately 20% of the calories being supplied as simple sugars. Such a dietary combination of fat and simple sugars is noted as promoting a variety of metabolic imbalances and dysfunctions. The rats were intubated twice daily with one of five HCA salts or placebo. On weekends, the HCA was added to the food at an approprate dosage. The amount of HCA in each arm of 8 animals was based on the minimum dosage which had been found effective in the form of the pure trisodium salt of HCA in tests by Hoffmann-La Roche in animals ingesting a 70% glucose diet, i.e., 0.33 mmoles/kg body weight HCA given twice per day. The HCA salts used were these: KCaHCA=a mixed potassium and calcium or double metal HCA salt commercially marketed as being entirely water soluble and of relatively high purity; KHCA=a relatively clean commercial potassium salt of HCA with a good mineral ligand attachment supplying 4467 mg potassium/100 grams of material; KMgHCA=three different dosage levels of an experimental potassium and magnesium salt with special characteristics, but suspected of being relatively unstable when exposed to stomach acid. The KCaHCA and KHCA salts were 60% HCA delivered at the rate of approximately 76 mg/day. The KMgHCA salts were delivered at the rate of 76 mg/day (r), 38 mg/day (l) and 228 mg/day (h), but due to initial miscalculations of the water of crystallization, this salt was only 45% HCA rather than 60%. The proper dosage for the KMgHCA(r) should have been 100 mg/day; the half dose (I) should have been 50 mg/day, and the triple dose (h) should have been 300 mg/day to match the commercial salts.
Tests were performed for C-reactive protein. Data was obtained for the animals at start and then at week 4 based on serum. Optical Density (OD) readings in the test kit used were 1 unit equals 50 picograms/mL. The delta changes over the 4 weeks for each arm vs control are shown.

TNF-α = experiment: TNF-α, rats on 30% fat / simple sugar diet; format: in vivo; conditions: eight weeks
Excerpt: as §5, with “The KCaHCA and KHCA salts were 60% HCA delivered at the rate of approximately 76 mg/day. The KMgHCA salts were delivered at the rate of 76 mg/day (r), 38 mg/day (l) and 228 mg/day (h), but due to initial miscalculations of the water of crystallization, this salt was only 45% HCA rather than 60%. The proper dosage for the KMgHCA(r) should have been 100 mg/day; the half dose (I) should have been 50 mg/day, and the triple dose (h) should have been 300 mg/day to match the commercial salts.” left out

ACE system = experiment: response of SBP to losartan challenge; format: in vivo, Spontaneously hypertensive rats (SHR); conditions: at 6 hours; SHR fed 100 mg HCA per day as new KMgHCA
Excerpt: Many factors can positively influence blood pressure, e.g., diuretics, antioxidants, regulators of sympathetic/parasympathetic tone, compounds that improve insulin sensitivity and so forth. Therefore, losartan, an angiotensin-2 receptor blocker, was utilized to discover whether the ACE system was involved in the results discussed in Example 1.
as §4
When losartan was injected, the SBP of both groups decreased. At 6 hours, the SBP were essentially the same. […] Thus, HCA appears to decrease angiotensin-2 in rats and to lower elevated SBP. Although insulin regulation likely is a factor in the blood pressure modulating effect of HCA, this evidence argues that inhibition of ACE is also important. […]

[5] = treated rats; cited from earlier work
systolic blood pressure [6] = experiment: earlier study of SBP not described here; format: in vivo; conditions: 120 mg HCA per day
[7] = body weight in the C-reactive protein study; format: in vivo, rats; conditions: by week 6; salt 76 mg/day
Excerpt: as §5, with “The KCaHCA and KHCA salts were 60% HCA delivered at the rate of approximately 76 mg/day. The KMgHCA salts were delivered at the rate of 76 mg/day (r), 38 mg/day (l) and 228 mg/day (h), but due to initial miscalculations of the water of crystallization, this salt was only 45% HCA rather than 60%. The proper dosage for the KMgHCA(r) should have been 100 mg/day; the half dose (I) should have been 50 mg/day, and the triple dose (h) should have been 300 mg/day to match the commercial salts.” left out

[8] = rats; diet of 70% glucose and 1% fat; cited from earlier work

**Q.** Which results are given for `O=C([O-])CC(O)(C(=O)[O-])C(O)C(=O)[O-].[K+].[Mg+2]` (stereo not drawn) [KMgHCA, potassium-magnesium hydroxycitrate]?
**A.** SBP compared to control (systolic blood pressure [1]; course of study, low dose 14 mg HCA per day): below the threshold for effect; lowering of SBP (systolic blood pressure [1]; high dose 84 mg HCA per day): over 10 mm Hg; lowering of SBP (systolic blood pressure [1]; intermediate dose 28 mg HCA per day): over 10 mm Hg; SBP compared to control (systolic blood pressure [1]; end of eight weeks, high dose 84 mg HCA per day): significant decreases in SBP compared to control; SBP compared to control (systolic blood pressure [1]; end of eight weeks, intermediate dose 28 mg HCA per day): significant decreases in SBP compared to control; insulin, control versus arm alone, Student's t test (insulin; 84 mg HCA per day): at the margin of significance; average insulin concentrations vs control (insulin; all KMgHCA groups (14, 28, 84 mg HCA per day)): lower; SBP change from baseline (systolic blood pressure [2]): decrease in SBP from baseline; body weight [3]: trend for an increase in body weight; rise in glucose appearance in bloodstream [4]: significantly lesser rise in glucose appearance in bloodstream; CRP Modulation (C-reactive protein; 4 wks, salt 38 mg/day): **; CRP Modulation (C-reactive protein; 4 wks, salt 76 mg/day): **; CRP Modulation (C-reactive protein; 4 wks, salt 228 mg/day): **; Δ OD units after 4 wks (C-reactive protein; salt 38 mg/day): 33 OD units; Δ OD units after 4 wks (C-reactive protein; salt 76 mg/day): −145 OD units; Δ OD units after 4 wks (C-reactive protein; salt 228 mg/day): −11.3 OD units; TNF-α, simple t test versus control (TNF-α; intermediate dose): significance; TNF-α, simple t test versus control (TNF-α; low dose): significance

**Q.** Which “decrease in SBP after losartan injection” value (ACE system) does the source give for `O=C(O)CC(O)(C(=O)O)C(O)C(=O)O` (single isomer, unassigned; (-)) [HCA, (−)-Hydroxycitric acid] here?
**A.** Its value is −21.7±7.0.

**Q.** What about the “plasma levels of glucose, insulin, or free fatty acids relative to controls” value [5] of the same compound?
**A.** Its value is “no significant differences in plasma levels of glucose, insulin, or free fatty acids”.

**Q.** For `O=C([O-])CC(O)(C(=O)[O-])C(O)C(=O)[O-].[Ca+2].[K+]` (stereo not drawn) [KCaHCA, potassium-calcium hydroxycitrate], which “SBP compared to control” value (systolic blood pressure [1]; end of eight weeks, 48 mg HCA per day) is on record?
**A.** The value was “significant decreases in SBP compared to control”.

**Q.** What about the “trend of circulating insulin” value (insulin; 48 mg HCA per day) of the same compound?
**A.** The value was “did not show a trend toward lower circulating insulin”.

**Q.** And the SBP (systolic blood pressure [6])?
**A.** The SBP was “decrease in SBP”.

**Q.** What about the “change in CRP compared with control, significance” value (C-reactive protein; 4 wks, salt 76 mg/day) of the same compound?
**A.** Its value is “failed to yield significant results”.

**Q.** What about the “Δ OD units after 4 wks” value (C-reactive protein; salt 76 mg/day) of the same compound?
**A.** Its value is 56 OD units.

**Q.** What about the “body weight, trend difference from control” value [7] of the same compound?
**A.** Its value is “greatest trend differences”.

**Q.** Which “lowest dose shown to be efficacious in reducing weight gain” value [8] does the source give for `O=C([O-])CC(O)(C(=O)[O-])C(O)C(=O)[O-].[Na+].[Na+].[Na+]` (stereo not drawn) [trisodium hydroxycitrate] here?
**A.** Its value is 0.33 mmol/kg twice a day.

**Q.** Which “SBP compared to control” value (systolic blood pressure [1]; end of eight weeks, 38.4 mg HCA per day) does the source give for `O=C([O-])CC(O)(C(=O)[O-])C(O)C(=O)[O-].[K+].[K+].[K+]` (stereo not drawn) [KHCA, potassium hydroxycitrate] here?
**A.** The value was “significant decreases in SBP compared to control”.

**Q.** And the “insulin, control versus arm alone, Student's t test” value (insulin; 38.4 mg HCA per day)?
**A.** The value was “showed significance”.

**Q.** And the “average insulin concentrations vs control” value (insulin; 38.4 mg HCA per day)?
**A.** The value was “lower”.

**Q.** What about the “CRP Modulation” value (C-reactive protein; 4 wks, salt 76 mg/day) of the same compound?
**A.** The value was “**”.

**Q.** What about the “Δ OD units after 4 wks” value (C-reactive protein; salt 76 mg/day) of the same compound?
**A.** Its value is −155 OD units.

**Q.** And the “body weight, trend difference from control” value [7]?
**A.** Its value is “greatest trend differences”.
